Data as given in patent US20080103205A1, “Pesticidal compositions and methods of use” (priority 2006, published 2008).

Columns and labels:
[1] = tested on: European corn borer (Ostrinia nubilalis); test: Diet surface test on European corn borer larvae (2nd instar); format: in vivo
Method: Concentrations of 6.25, 12.5, 25, or 50 ppm AT blocker were prepared in 95% ethyl alcohol (EtOH). 95% EtOH alone served as control. European corn borer (ECB) diet prepared from the powdered diet supplied by French Agricultural Research, Inc. Diet (1-2 ml) was poured into small cups and allowed to cool to room temperature. Test solution (100 ul) was placed onto the diet surface and allowed to evaporate the solvent. Each concentration of chemical had 2 sets of 10 cups each. One late 2nd instar larva was placed in each cup and covered with lid having perforations for aeration. Cups were placed in an incubator for 7 days at 25±1° C. and 70±5% RH. After seven days, the weight of each larva was taken and any mortality was recorded. Then, the surviving larvae were transferred to fresh diet cups holding sufficient diet (5-6 ml) without chemicals and incubated at 25±1° C. and 70±5% RH until pupation. Weights of larvae were taken 14 days after transferring to fresh diet (21 days after start of treatment). Finally, the number of days until pupation was recorded.
Anion transporters caused larval death and a reduction in weight gain within 7 days exposure. The effect persisted for 2 weeks time on untreated diet, but total time to pupation was relatively unaffected.

[2] = tested on: Meloidogyne incognita eggs; test: M. incognita egg hatching; format: in vivo
Method: Meloidogyne incognita (plant parasitic nematode) eggs were collected from tomato plant roots and were suspended in water. The solution was either diluted or concentrated to adjust the egg load to about 5000/ml. AT stock solutions prepared in DMSO and 300 ul of test solution was placed in a well, along with 20 ul of aqueous solution containing eggs. The number of eggs in 20 ul solution ranged from 115 to 143 (n=10). Each treatment (2, 5, 10, 20, or 40 ppm) was replicated 5 times. Microplates were sealed with Parafilm™ and incubated at room temperature. Similar tests conducted with 0.2% DMSO alone served as controls. Egg hatching was monitored at 24, 72, 120, and 168 hr after incubation. Both moving and non-moving nematodes were counted to arrive at the number of eggs hatched. Proportion of egg hatch was calculated as the number of juveniles divided by total number of eggs.
VSCC blockers effect on M. incognita egg hatching is shown in the following tables where % hatched is rounded to the nearest percentage point and where “% C*” is % hatch, normalized to control.

[3] = 6.25 ppm, 7 days after feeding, 10 larvae treated
[4] = 6.25 ppm, 21 days after feeding
[5] = 6.25 ppm, 21 days after feeding, 10 larvae treated
[6] = 12.5 ppm, 7 days after feeding, 10 larvae treated
[7] = 12.5 ppm, 21 days after feeding
[8] = 12.5 ppm, 21 days after feeding, 10 larvae treated
[9] = 25 ppm, 7 days after feeding, 10 larvae treated
[10] = 25 ppm, 21 days after feeding, 10 larvae treated
[11] = 50 ppm, 7 days after feeding, 10 larvae treated

## CC1(C2CCCC2)Cc2cc(OCC(=O)O)c(Cl)c(Cl)c2C1=O (single isomer, unassigned; (+)) [IAA-94, (+)(2-cyclopentyl-6,7-dichloro-2-methyl-1-oxo-5-indanyloxy) acetic acid]
[1]; 6.25 ppm, 7 days after feeding
  Mean wt of survived larvae: 45.52 mg
  Mean wt of survived larvae, mg: 44.64 (10) mg
[1]; 6.25 ppm, 7 days after feeding, 10 larvae
  No. dead: 0
[1]; [3]
  # surviving: 10
  No. dead: 0
[1]; [4]
  Mean wt of survived larvae: 138.56 mg
  Mean wt of survived larvae, mg: 150.90 (10) mg
[1]; 6.25 ppm, 21 days after feeding, 10 larvae
  No. dead: 0
[1]; [5]
  # surviving: 10
  No. dead: 0
[1]; 12.5 ppm, 7 days after feeding
  Mean wt of survived larvae: 33.62 mg
  Mean wt of survived larvae, mg: 34.40 (10) mg
[1]; 12.5 ppm, 7 days after feeding, 10 larvae
  No. dead: 0
[1]; [6]
  # surviving: 10
  No. dead: 0
[1]; [7]
  Mean wt of survived larvae: 108.84 mg
  Mean wt of survived larvae, mg: 115.14 (10) mg
[1]; 12.5 ppm, 21 days after feeding, 10 larvae
  No. dead: 0
[1]; [8]
  # surviving: 10
  No. dead: 0
[1]; 25 ppm, 7 days after feeding
  Mean wt of survived larvae: 25.97 mg
  Mean wt of survived larvae, mg: 23.96 (10) mg
[1]; 25 ppm, 7 days after feeding, 10 larvae
  No. dead: 0
[1]; [9]
  # surviving: 8
  No. dead: 2
[1]; 25 ppm, 21 days after feeding
  Mean wt of survived larvae: 4.85 mg
  Mean wt of survived larvae, mg: 65.60 (8) mg
[1]; 25 ppm, 21 days after feeding, 10 larvae
  No. dead: 2
[1]; [10]
  # surviving: 8
  No. dead: 2
[1]; 50 ppm, 7 days after feeding
  Mean wt of survived larvae: 11.90 mg
  Mean wt of survived larvae, mg: 12.93 (6) mg
[1]; 50 ppm, 7 days after feeding, 10 larvae
  No. dead: 4
[1]; [11]
  # surviving: 2
  No. dead: 8
[1]; 50 ppm, 21 days after feeding
  Mean wt of survived larvae: 0 mg
  Mean wt of survived larvae, mg: 24.0 (2) mg
[1]; 50 ppm, 21 days after feeding, 10 larvae
  No. dead: 8
[1]; 50 ppm, 21 days after feeding, 10 larvae treated
  No. dead: 10
[1]; Ostrinia nubilalis, 168 h, 6.25 ppm, 7 days after feeding
  mortality at 6.25 ppm: 0%
[1]; Ostrinia nubilalis, 168 h, 12.5 ppm, 7 days after feeding
  mortality at 12.5 ppm: 0%
[1]; Ostrinia nubilalis, 504 h, 6.25 ppm, 21 days after feeding
  mortality at 6.25 ppm: 0%
[1]; Ostrinia nubilalis, 504 h, 12.5 ppm, 21 days after feeding
  mortality at 12.5 ppm: 0%
[1]; Ostrinia nubilalis, 504 h, 25 ppm, 21 days after feeding
  mortality at 25 ppm: 20%
[1]; Ostrinia nubilalis, 504 h, 50 ppm, 21 days after feeding
  mortality at 50 ppm: 80%
[2]; 2 ppm, 24 hr
  Eggs Hatched %: 10%
  Eggs Hatched % C* (% hatch, normalized to control): 100%
  Eggs Hatched No.: 70
[2]; 2 ppm, 72 hr
  Eggs Hatched %: 15%
  Eggs Hatched % C* (% hatch, normalized to control): 94%
  Eggs Hatched No.: 97
[2]; 2 ppm, 120 hr
  Eggs Hatched %: 19%
  Eggs Hatched % C* (% hatch, normalized to control): 86%
  Eggs Hatched No.: 130
[2]; 2 ppm, 168 hr
  Eggs Hatched %: 24%
  Eggs Hatched % C* (% hatch, normalized to control): 86%
  Eggs Hatched No.: 161
[2]; 5 ppm, 24 hr
  Eggs Hatched %: 10%
  Eggs Hatched % C* (% hatch, normalized to control): 100%
  Eggs Hatched No.: 66
[2]; 5 ppm, 72 hr
  Eggs Hatched %: 13%
  Eggs Hatched % C* (% hatch, normalized to control): 81%
  Eggs Hatched No.: 96
[2]; 5 ppm, 120 hr
  Eggs Hatched %: 19%
  Eggs Hatched % C* (% hatch, normalized to control): 86%
  Eggs Hatched No.: 128
[2]; 5 ppm, 168 hr
  Eggs Hatched %: 22%
  Eggs Hatched % C* (% hatch, normalized to control): 79%
  Eggs Hatched No.: 161
[2]; 10 ppm, 24 hr
  Eggs Hatched %: 9%
  Eggs Hatched % C* (% hatch, normalized to control): 90%
  Eggs Hatched No.: 64
[2]; 10 ppm, 72 hr
  Eggs Hatched %: 13%
  Eggs Hatched % C* (% hatch, normalized to control): 81%
  Eggs Hatched No.: 88
[2]; 10 ppm, 120 hr
  Eggs Hatched %: 18%
  Eggs Hatched % C* (% hatch, normalized to control): 82%
  Eggs Hatched No.: 112
[2]; 10 ppm, 168 hr
  Eggs Hatched %: 20%
  Eggs Hatched % C* (% hatch, normalized to control): 71%
  Eggs Hatched No.: 134
[2]; 20 ppm, 24 hr
  Eggs Hatched %: 8%
  Eggs Hatched % C* (% hatch, normalized to control): 80%
  Eggs Hatched No.: 60
[2]; 20 ppm, 72 hr
  Eggs Hatched %: 12%
  Eggs Hatched % C* (% hatch, normalized to control): 75%
  Eggs Hatched No.: 82
[2]; 20 ppm, 120 hr
  Eggs Hatched %: 15%
  Eggs Hatched % C* (% hatch, normalized to control): 68%
  Eggs Hatched No.: 96
[2]; 20 ppm, 168 hr
  Eggs Hatched %: 17%
  Eggs Hatched % C* (% hatch, normalized to control): 61%
  Eggs Hatched No.: 112
[2]; 40 ppm, 24 hr
  Eggs Hatched %: 8%
  Eggs Hatched % C* (% hatch, normalized to control): 80%
  Eggs Hatched No.: 55
[2]; 40 ppm, 72 hr
  Eggs Hatched %: 11%
  Eggs Hatched % C* (% hatch, normalized to control): 69%
  Eggs Hatched No.: 69
[2]; 40 ppm, 120 hr
  Eggs Hatched %: 13%
  Eggs Hatched % C* (% hatch, normalized to control): 59%
  Eggs Hatched No.: 82
[2]; 40 ppm, 168 hr
  Eggs Hatched %: 14%
  Eggs Hatched % C* (% hatch, normalized to control): 50%
  Eggs Hatched No.: 92
